Holding throughout (format): cell-based
For assay [1], the system named is HIV-1 virus strain HTLV-IIIB. Description: p24 detection by Western blot in HIV-infected cells after gag peptide treatment. The note with it: two weeks after infection, Western blot with anti-p24 MAbs. For orientation: Immunoblotting shows a protein as a band on a membrane.
Protocol: (§1) Cells. Permanently growing T lymphocytes (Jurkat or H9 cells) were used for the in vitro experiments. The medium used was conventional RPMI 1640 with 10% FCS, 2% NaHCO3 (5% strength), 1% penicillin/streptavidin solution and 2 mg/l Polybrene. The experiments were carried out either in 96-well microtiter plates (Nunc) or in 24-well plates (Nunc).
(§2) Viruses. HIV-1 virus strain HTLV-IIIB and HIV-2 strain ROD were used.
In the first experiment, 50 μl of 1×10^6 jurkat cells/ml were pipetted into each well of 96-well plates, and each was infected with 50 μl (1000 TCID50) HTLV-IIIB. The gag peptide concentration was adjusted to 200 μg/ml or 40 μg/ml. After one week, 100 μl of supernatant were removed and any cells still present were removed by centrifugation. Then 80 μl of supernatant were placed on an uninfected jurkat cell culture. Viral antigen was detected in the infected cells by immunolabeling after a Western blot. For this, the cells remaining after the inhibition experiment were taken up in 2×SDS-PAGE sample buffer and fractionated in a 14% PAG. The fractionated proteins were then blotted onto a nitrocellulose membrane and incubated with an anti-p24 HIV-1 monoclonal antibody to detect viral proteins. […] Infectious HIV in the supernatant of the peptide-treated cells was analyzed by the reverse transcriptase assay. […]
In assay [2] the test system is HIV-1 virus strain HTLV-IIIB. Description: Inhibition of HIV-1 synthesis: infectious virus / reverse transcriptase activity in detector cell culture supernatant. The settings on record: for inhibitory effect on HIV-1 synthesis (reverse transcriptase activity of detector culture supernatant): Experiment 3 (FIG. 3), 100 TCID50 HIV-1, jurkat cells, detector cultures incubated two weeks; for inhibitory effect on HIV-1 synthesis: Experiments 1 and 2, jurkat cells, 1000 or 100 TCID50 HTLV-IIIB, peptide 200 or 40 μg/ml.
Protocol: These peptides were added in various concentrations (200-40 μg/ml) to freshly infected jurkat cells. Infection was carried out with 100-1000 TCID50. The infection was analyzed by microscopic assessment and investigation of the supernatant for the content of infectious HIV. For this purpose, the cell supernatant was added to non-infected jurkat cells. After incubation for two weeks, this detector cell culture was examined for HIV under the microscope and by reverse transcriptase assay.
Permanently growing T lymphocytes (Jurkat or H9 cells) were used for the in vitro experiments. The medium used was conventional RPMI 1640 with 10% FCS, 2% NaHCO3 (5% strength), 1% penicillin/streptavidin solution and 2 mg/l Polybrene. The experiments were carried out either in 96-well microtiter plates (Nunc) or in 24-well plates (Nunc).
HIV-1 virus strain HTLV-IIIB and HIV-2 strain ROD were used.
(§3) Reverse transcriptase assay. The microassay for detecting viral reverse transcriptase was carried out by the method of Gregersen et al. (Gregersen et al. (1988) Detection of human immunodeficiency virus and other retroviruses in cell culture supernatants by a reverse transcriptase microassay. J. Virol. Methods 19, 161-168). Cell culture supernatants were concentrated five-fold by PEG precipitation. Positive controls (VC) were supernatants of untreated infected cell cultures, and negative controls (NC) were cell culture supernatants from uninfected cells. The value measured for the NC was doubled and used as value for excluding negative cells.
In the first experiment, 50 μl of 1×10^6 jurkat cells/ml were pipetted into each well of 96-well plates, and each was infected with 50 μl (1000 TCID50) HTLV-IIIB. The gag peptide concentration was adjusted to 200 μg/ml or 40 μg/ml. After one week, 100 μl of supernatant were removed and any cells still present were removed by centrifugation. Then 80 μl of supernatant were placed on an uninfected jurkat cell culture. […] Infectious HIV in the supernatant of the peptide-treated cells was analyzed by the reverse transcriptase assay.
1000 TCID50 HIV-1 were employed for infecting the jurkat cells. Reverse transcriptase activity measured in cpm in the cell culture supernatant from the detector cell culture. The supernatant was concentrated five-fold by PEG precipitation. VC=virus control; NC=negative control. Twice the NC value was used to exclude negative cell cultures. To improve clarity, the RT values are reported in the figure in logarithmic presentation.
100 TCID50 HIV-1 were employed to infect the jurkat cells. Reverse transcriptase activity measured in cpm in the cell culture supernatant from the detector cell culture. The supernatant was concentrated five-fold by PEG precipitation. VC=virus control; NC=negative control.

A further assay has as its system HIV-2 strain ROD. Description: Inhibition of HIV-2 synthesis: reverse transcriptase activity in detector cell culture supernatant (Experiment 3). The note with it: Experiment 3 (FIG. 3); 100 TCID50 HIV-2, H9 cells.

Protocol for HIV-2 strain ROD: as §1, §2, §3
H9 cells were infected with 100 TCID50 HIV-2 for this experiment. […]
100 TCID50 HIV-1 and HIV-2 were employed to infect the jurkat and H9 cells respectively. Reverse transcriptase activity measured in cpm in the cell culture supernatant from the detector cell culture. […]

As for NPGLLETSEGCROILGQLQPSLQT [Peptide 5], in assay [1], the “p24 Detection” value is listed as “(+)”. In assay [2], the “inhibitory effect on HIV-1 synthesis (reverse transcriptase activity of detector culture supernatant)” value was “strong inhibitory effect” and the “inhibitory effect on HIV-1 synthesis” value is recorded as “exerted an inhibitory effect on HIV-1 synthesis”. Moreover, the “inhibition of HIV-2 synthesis (reverse transcriptase activity of detector culture supernatant)” value in the assay with HIV-2 strain ROD is on record as “very clearly evident”.

As for “WASRELERFAVNPGLLETSEGCRQ [Peptide 4, synthetic gag peptide from the p17 submembrane protein]”, the “p24 Detection” value in assay [1] is listed as “-”. Besides, in assay [2], the “inhibitory effect on HIV-1 synthesis (reverse transcriptase activity of detector culture supernatant)” value is given as “strong inhibitory effect” and the “inhibitory effect on HIV-1 synthesis” value is “exerted an inhibitory effect on HIV-1 synthesis”. Also, in the assay with HIV-2 strain ROD, the “inhibition of HIV-2 synthesis (reverse transcriptase activity of detector culture supernatant)” value is listed as “very clearly evident”.

The record behind these values is patent publication US5612453A, “Selected peptides of the group-specific antigen (gag) of human immunodeficiency virus (HIV), the preparation and use thereof” (Chiron Behring GmbH & Co., priority 1990, dated 1997).
